# In US7094752B2 (Chiron Corporation, priority 1997, dated 2006):
# Square brackets hold non-standard residues; d marks the D form. Peptide text beside a SMILES is read from it. 1Nal = N[C@@H](Cc1cccc2ccccc12)C(=O)O; 2Nal = N[C@@H](Cc1ccc2ccccc2c1)C(=O)O; Abu = CC[C@H](N)C(=O)O
# Biological target: soluble uPAR (Homo sapiens, UniProt Q03405)
# Format: binding
# Parameters: sUPAR, soluble truncated form of the urokinase receptor; made in house; host or cells: baculovirus-infected Sf9 insect cells
# Settings: for % Inhibition 2.5 uM: 2500.0; for % Inhibition 5 uM: 5000.0
# Description: Streptavidin, 100 μl (0.1 mg/ml) in 50 mM Na2CO3, pH 9.6, was added to MaxiSorp wells (Nunc), incubated overnight at 4 C, and then washed with PBS/BSA. Biotinylated sUPAR (25 nM in PBS/BSA) was added to the wells and incubated for 2 hours at room temperature prior to washing. Competitive peptide inhibitors were added to the wells immediately prior to addition of the bacteriophage. The wells were incubated for one hour at room temperature, then washed and bound bacteriophage eluted with 6M urea in 0.1N HCl, pH 2.5. After 15 minutes, the urea eluate was brought to neutral pH by addition of 2M Tris base and the bacteriophage titers of input stocks and elutions measured by plaque formation assay. Results were expressed as the percent of input bacteriophage which bind to the wells. Alternatively, the amount of bacteriophage was determined in an ELISA where phage were preincubated with HRP-conjugated anti-M13 antibody for 30 minutes at room temperature before dispensing into wells prepared as above and incubated for one hour at room temperature. The final anti-M13 conjugate dilution was 1:4000. After washing, TMB substrate (100 μl/well) was added and color development was stopped with 0.8N H2SO4 (100 μl/well). The absorbance at 450 nm was then measured in a 96 well plate reader.
# In a uPAR binding assay, the following analogs were tested in a competition with phage displaying either peptide 25 or peptide 9. The analogs comprise both natural and unnatural amino acids.
# The analogs were tested in an assay utilizing soluble uPAR, similar to the method described in Example 2. The analogs were tested for their ability to compete with phage displaying either peptide 9 or peptide 25. Analogs 3–61 were tested in competition with peptide 25. Analogs 62–96 were tested in competition with peptide 9. Approximately 10^8 plaque forming units of the phage were used in the assay.
# The analogs were tested at a concentration at 40 μM in the uPAR competition assay with phage displaying peptide 25. The results below show which analogs were active.
# Analogs 31–61 were tested for their ability to compete with phage displaying peptide 25. The active analogs were tested further at two concentrations, 5 μM and 2.5 μM. These concentrations were calculated based on the synthesis reactions. However, the sequences * were further tested and determined to contain high amounts of amino acids and the quantity tested could have been higher than 5 μM or 2.5 μM.
# Chain of soluble uPAR (Q03405 23-305 limits assumed): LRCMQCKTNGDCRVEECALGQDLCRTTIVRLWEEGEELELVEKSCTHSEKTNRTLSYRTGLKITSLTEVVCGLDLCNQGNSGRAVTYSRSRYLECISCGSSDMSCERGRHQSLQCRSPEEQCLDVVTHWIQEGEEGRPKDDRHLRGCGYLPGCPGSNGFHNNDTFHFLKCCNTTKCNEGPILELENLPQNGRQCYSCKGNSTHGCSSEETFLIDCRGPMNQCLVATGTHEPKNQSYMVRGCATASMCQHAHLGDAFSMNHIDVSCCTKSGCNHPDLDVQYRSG
SMILES,% Inhibition 2.5 uM [%],% Inhibition 5 uM [%]
CSCC[C@H](NC(=O)[C@H](Cc1ccc(O)cc1)NC(=O)CNC(=O)[C@H](CC(C)C)NC(=O)[C@H](CO)NC(=O)[C@H](CC(C)C)NC(=O)[C@H](Cc1c[nH]cn1)NC(=O)[C@H](Cc1c[nH]cn1)NC(=O)[C@H](Cc1ccc(O)cc1)NC(=O)[C@@H](NC(=O)[C@H](CO)NC(=O)[C@H](CCC(=O)O)NC(=O)[C@@H](C)N)[C@@H](C)O)C(=O)N[C@@H](Cc1ccc(O)cc1)C(=O)N[C@H](C(=O)N[C@@H](CC(C)C)C(=O)N[C@@H](CC(N)=O)C(N)=O)[C@@H](C)O [Analog 46] (H-[dA]ESTYHHLSLGYMYTLN-NH2),41,57
CSCC[C@H](NC(=O)[C@H](Cc1ccc(O)cc1)NC(=O)CNC(=O)[C@H](CC(C)C)NC(=O)[C@H](CO)NC(=O)[C@H](CC(C)C)NC(=O)[C@H](Cc1c[nH]cn1)NC(=O)[C@H](Cc1c[nH]cn1)NC(=O)[C@H](Cc1ccc(O)cc1)NC(=O)[C@@H](NC(=O)[C@H](CO)NC(=O)[C@H](CCC(=O)O)NC(=O)[C@H](C)N)[C@@H](C)O)C(=O)N[C@@H](Cc1ccc(O)cc1)C(=O)N[C@H](C(=O)N[C@H](CC(C)C)C(=O)N[C@@H](CC(N)=O)C(N)=O)[C@@H](C)O [Analog 60] (H-AESTYHHLSLGYMYT[dL]N-NH2),22,75
CSCC[C@H](NC(=O)[C@H](Cc1ccc(O)cc1)NC(=O)CNC(=O)[C@H](CC(C)C)NC(=O)[C@H](CO)NC(=O)[C@H](CC(C)C)NC(=O)[C@H](Cc1c[nH]cn1)NC(=O)[C@H](Cc1c[nH]cn1)NC(=O)[C@H](Cc1ccc(O)cc1)NC(=O)[C@@H](NC(=O)[C@H](CO)NC(=O)[C@@H](CCC(=O)O)NC(=O)[C@H](C)N)[C@@H](C)O)C(=O)N[C@@H](Cc1ccc(O)cc1)C(=O)N[C@H](C(=O)N[C@@H](CC(C)C)C(=O)N[C@@H](CC(N)=O)C(N)=O)[C@@H](C)O [Analog 47] (H-A[dE]STYHHLSLGYMYTLN-NH2),35,61
CSCC[C@H](NC(=O)[C@H](Cc1ccc(O)cc1)NC(=O)CNC(=O)[C@H](CC(C)C)NC(=O)[C@H](CO)NC(=O)[C@H](CC(C)C)NC(=O)[C@H](Cc1c[nH]cn1)NC(=O)[C@H](Cc1c[nH]cn1)NC(=O)[C@H](Cc1ccc2ccccc2c1)NC(=O)[C@@H](NC(=O)[C@H](CO)NC(=O)[C@H](CCC(=O)O)NC(=O)[C@H](C)N)[C@@H](C)O)C(=O)N[C@@H](Cc1ccc(O)cc1)C(=O)N[C@H](C(=O)N[C@@H](CC(C)C)C(=O)N[C@@H](CC(N)=O)C(N)=O)[C@@H](C)O [Analog 36] (H-AEST[2Nal]HHLSLGYMYTLN-NH2),61,78
CC[C@H](NC(=O)[C@H](Cc1ccc(O)cc1)NC(=O)CNC(=O)[C@H](CC(C)C)NC(=O)[C@H](CO)NC(=O)[C@H](CC(C)C)NC(=O)[C@H](Cc1c[nH]cn1)NC(=O)[C@H](Cc1c[nH]cn1)NC(=O)[C@H](Cc1ccc(O)cc1)NC(=O)[C@@H](NC(=O)[C@H](CO)NC(=O)[C@H](CCC(=O)O)NC(=O)[C@H](C)N)[C@@H](C)O)C(=O)N[C@@H](Cc1ccc(O)cc1)C(=O)N[C@H](C(=O)N[C@@H](CC(C)C)C(=O)N[C@@H](CC(N)=O)C(N)=O)[C@@H](C)O [Analog 45] (H-AESTYHHLSLGY[Abu]YTLN-NH2),31,59
"CSCC[C@H](NC(=O)[C@H](Cc1ccc(O)cc1)NC(=O)CNC(=O)[C@H](CC(C)C)NC(=O)[C@H](CO)NC(=O)[C@H](CC(C)C)NC(=O)[C@H](Cc1c[nH]cn1)NC(=O)[C@H](Cc1c[nH]cn1)NC(=O)[C@H](Cc1cccc2ccccc12)NC(=O)[C@@H](NC(=O)[C@H](CO)NC(=O)[C@H](CCC(=O)O)NC(=O)[C@H](C)N)[C@@H](C)O)C(=O)N[C@@H](Cc1ccc(O)cc1)C(=O)N[C@H](C(=O)N[C@@H](CC(C)C)C(=O)N[C@@H](CC(N)=O)C(N)=O)[C@@H](C)O [Analog 35, AESTXHHLSLGYMYTLN] (H-AEST[1Nal]HHLSLGYMYTLN-NH2)",70,94
